From patent publication EP2797914B1, “NIFURATEL SULFOXIDE FOR USE IN THE TREATMENT OF BACTERIAL INFECTIONS” (Polichem SA, priority 2011, dated 2013)

Tests used:
Assay type in all cases: cell-based
[1] = system: Salmonella paratyphi B ATCC 10719; assay: MIC by broth microdilution method (CLSI M07-A8 / M11-A7); efficiency coefficient derived
Protocol: (§1) The in vitro activity of nifuratel sulfoxide racemate, R-nifuratel sulfoxide and S-nifuratel sulfoxide was tested on a panel of bacteria, which included both Gram positive and Gram negative bacteria.
(§2) The minimum inhibitory concentrations (MICs) of the compounds were determined by the broth microdilution method or by the agar dilution method, according to the National Committee for Clinical Laboratory Standards (CLSI) reference methods M07-A8 and M11-A7.
(§3) The efficiency coefficient (EC) of nifuratel sulfoxide vs. nifuratel was calculated for each tested strain as follows: EC = relative oral bioavailability*[…] [formula]
(§4) Where: • nifS = nifuratel sulfoxide • nif = nifuratel • EC = 1 is indicative of equivalent efficiency between nifuratel sulfoxide and nifuratel. • EC < 1 is indicative of a lower efficiency of nifuratel sulfoxide vs. nifuratel • EC > 1 is indicative of a higher efficiency of nifS vs. nif

[2] = system: Shigella sonnei ATCC 11060; assay: as above
Protocol: as §1, §2, §3, §4

[3] = system: Neisseria gonorrhoeae ATCC 19424; assay: as above; conditions: broth microdilution; Neisseria gonorrhoeae ATCC 19424
Protocol: as §1, §2, §3, §4

[4] = system: Klebsiella pneumonia ATCC 10031; assay: as above; conditions: broth microdilution; Klebsiella pneumonia ATCC 10031
Protocol: as §1, §2, §3, §4

[5] = system: Salmonella typhimurium ATCC 14028; assay: as above; conditions: broth microdilution; Salmonella typhimurium ATCC 14028
Protocol: as §1, §2, §3, §4

[6] = system: Escherichia coli ATCC 11775; assay: as above; conditions: broth microdilution; Escherichia coli ATCC 11775
Protocol: as §1, §2, §3, §4

[7] = system: Proteus mirabilis ATCC 14153; assay: as above; conditions: broth microdilution; Proteus mirabilis ATCC 14153
Protocol: as §1, §2, §3, §4

[8] = system: Staphylococcus aureus (MRSA); assay: as above; conditions: broth microdilution; Staphylococcus aureus (MRSA)
Protocol: as §1, §2, §3, §4

[9] = system: Micrococcus pyogenes ATCC 11631; assay: as above; conditions: broth microdilution; Micrococcus pyogenes ATCC 11631
Protocol: as §1, §2, §3, §4

[10] = system: Lactobacillus iners ATCC 55195; assay: MIC by broth microdilution method (CLSI M07-A8 / M11-A7); conditions: broth microdilution; Lactobacillus iners ATCC 55195
Protocol: The in vitro activity of nifuratel sulfoxide racemate, R-nifuratel sulfoxide and S-nifuratel sulfoxide was tested on a panel of bacteria, which included both Gram positive and Gram negative bacteria. The minimum inhibitory concentrations (MICs) of the compounds were determined by the broth microdilution method or by the agar dilution method, according to the National Committee for Clinical Laboratory Standards (CLSI) reference methods […]-A8 and M11-A7.

[11] = system: Gardnerella vaginalis; assay: MIC by agar dilution method (CLSI M07-A8 / M11-A7); efficiency coefficient derived; conditions: for MIC: agar dilution
Protocol: as §1, §2, §3, §4

[12] = system: Atopobium vaginae; assay: as above; conditions: for MIC: agar dilution
Protocol: as §1, §2, §3, §4

Compound: C[S+]([O-])CC1CN(N=Cc2ccc([N+](=O)[O-])o2)C(=O)O1 (mixture of isomers) [R-Nifuratel sulfoxide, (R)-nifuratel sulfoxide]
- MIC [1]: 16 µg/mL
- MIC [2]: 16 µg/mL
- MIC [3]: 2 µg/mL
- MIC [4]: 16 µg/mL
- MIC [5]: 16 µg/mL
- MIC [6]: 16 µg/mL
- MIC [7]: 8 µg/mL
- MIC [8]: 16 µg/mL
- MIC [9]: 32 µg/mL
- MIC [10]: 16 µg/mL
- MIC ([11]; strain ATCC 14018): 8 µg/mL
- MIC ([11]; strain C2): 32 µg/mL
- MIC ([11]; strain D2): 64 µg/mL
- MIC ([11]; strain E2): 64 µg/mL
- MIC ([11]; strain G2): 64 µg/mL
- MIC ([11]; strain H2): 16 µg/mL
- MIC ([11]; strain J2): 32 µg/mL
- MIC ([11]; strain K2): 64 µg/mL
- in vitro antimicrobial activity (in words) ([11]; tested Gardnerella vaginalis strains): good activity
- MIC ([12]; strain CCUG 38953): 1 µg/mL
- MIC ([12]; strain CCUG 39382): 1 µg/mL
- MIC ([12]; strain CCUG 42099): 1 µg/mL
- MIC ([12]; strain CCUG 43049): 4 µg/mL
- MIC ([12]; strain CCUG 44061): 1 µg/mL
- MIC ([12]; strain CCUG 44156): 2 µg/mL
- MIC ([12]; strain CCUG 48515): 2 µg/mL
- MIC ([12]; strain CCUG 55226): 2 µg/mL
- MIC ([12]; strain CCUG 55227): 1 µg/mL
- in vitro antimicrobial activity (in words) ([12]; tested Atopobium vaginae strains): good activity
